IC50 data for 23 compounds are collected here from PubChem BioAssay AID743170 (Sanford-Burnham Center for Chemical Genomics, 2013).

“And” between values parts separate entries of the source, which are not always exact repeats. Equal entries are not always repeated. The source made the active and inactive calls.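 Rule for the calls: active = compounds that lower Nile red lipid droplet staining in rat heart muscle cells with dose, giving a fitted IC50; inactive = the rest.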

The subject of this test is H9c2 cells, Nile red TAG accumulation, high-content imaging. The test can be described thus: Nile red lipid droplet reduction, imaging readout – H9c2 cells, high-content screening, dose response (AID 743170).

What is called IC50 is the concentration that gives 50% inhibition. For `O=C(Nc1cccc(-c2nc3ccccc3[nH]2)c1)c1cccc2c1C(=O)N(CCOc1ccccc1)C2`, the IC50 was 793 nM.

Regarding `COc1ccc(CCN2Cc3cccc(C(=O)Nc4cccc(-c5nc6ccccc6[nH]5)c4)c3C2=O)cc1OC`, the IC50 was 829 nM.

As to `CSCCCN1Cc2cccc(C(=O)Nc3cccc(-c4nc5ccccc5[nH]4)c3)c2C1=O`, the IC50 was 526 nM.

Take `CCOCCN1Cc2cccc(C(=O)Nc3cccc(-c4nc5ccccc5[nH]4)c3)c2C1=O`: the IC50 is 792 nM.

As for `O=C(Nc1cccc(-c2nc3ccccc3[nH]2)c1)c1cccc2c1C(=O)N(CCN1CCOCC1)C2`, the 50% inhibitory concentration (IC50) is 1750 nM.

Turning to `O=C(Nc1cccc(-c2nc3ccccc3[nH]2)c1)c1cccc2c1C(=O)N(CC1CC1)C2`, the IC50 was 662 nM.

As to `CCOC(=O)c1cccc(NC(=O)c2cccc3c2C(=O)N(CCOC)C3)c1`, the IC50 is > 50000 nM (inactive).

As for `COCCCN1Cc2cccc(C(=O)Nc3cccc(-c4nc5ccccc5[nH]4)c3)c2C1=O`, the IC50 is 1370 nM.

In the case of `COCCN1Cc2cccc(C(=O)Nc3cccnc3)c2C1=O`, the IC50 was > 50000 nM (inactive).

As to `COCCN1Cc2cccc(C(=O)Nc3cccc(-c4nc5ccccc5[nH]4)c3)c2C1=O`, the IC50 was 567 nM and 569 nM and 839 nM.

Take `COCCN1Cc2cccc(C(=O)Nc3cccc(-c4nc5ccc(F)cc5[nH]4)c3)c2C1=O`: the IC50 was 762 nM.

Regarding `COCCN1Cc2cccc(C(=O)Nc3cccc(-c4nc5ccc(C(F)(F)F)cc5[nH]4)c3)c2C1=O`, the IC50 was 352 nM.

Consider `COCCN1Cc2cccc(C(=O)Nc3cccc(C(=O)Nc4ccccc4OC)c3)c2C1=O`, for which the IC50 was 2490 nM.

`COCCN1Cc2cccc(C(=O)Nc3cccc(-c4nc5ccc(Cl)cc5[nH]4)c3)c2C1=O`: the IC50 was 1020 nM.

On to `O=C(Nc1cccc(-c2nc3ccccc3[nH]2)c1)c1cccc2c1C(=O)N(CCc1ccccc1)C2`, for which the concentration for half-maximal inhibition (IC50) was 11200 nM.

As for `COCCN1Cc2cccc(C(=O)Nc3cccc(C(=O)Nc4ccccc4)c3)c2C1=O`, the IC50 is 2330 nM.

In the case of `COCCN1Cc2cccc(C(=O)Nc3cccc(-c4nc5ccc(C)cc5[nH]4)c3)c2C1=O`, the IC50 was 393 nM.

`COCCN1Cc2cccc(C(=O)NCc3cccc(N(C)C)c3)c2C1=O`: the IC50 is > 50000 nM (inactive).

For `COCCN1Cc2cccc(C(=O)Nc3nc4ccccc4n3C)c2C1=O`, the IC50 was > 50000 nM (inactive).

`COc1ccccc1CCN1Cc2cccc(C(=O)Nc3cccc(-c4nc5ccccc5[nH]4)c3)c2C1=O`: the IC50 was 432 nM.

Turning to `COCCN1Cc2cccc(C(=O)Nc3nc4ccccc4[nH]3)c2C1=O`, the IC50 was > 50000 nM (inactive).

Turning to `COCCn1cnc2cccc(C(=O)Nc3cccc(-c4nc5ccccc5[nH]4)c3)c2c1=O`, the IC50 was > 50000 nM (inactive).

Regarding `CCCCN1Cc2cccc(C(=O)Nc3cccc(-c4nc5ccccc5[nH]4)c3)c2C1=O`, the concentration for half-maximal inhibition (IC50) was 760 nM.
